The structures appear in SMILES notation.

The target of this experiment is T1, human oxytocin receptor (Homo sapiens, UniProt P30559).
T1 construct: host or cells: CHO cells (pcDNA3.1 vector)
T1 sequence (P30559 1-389): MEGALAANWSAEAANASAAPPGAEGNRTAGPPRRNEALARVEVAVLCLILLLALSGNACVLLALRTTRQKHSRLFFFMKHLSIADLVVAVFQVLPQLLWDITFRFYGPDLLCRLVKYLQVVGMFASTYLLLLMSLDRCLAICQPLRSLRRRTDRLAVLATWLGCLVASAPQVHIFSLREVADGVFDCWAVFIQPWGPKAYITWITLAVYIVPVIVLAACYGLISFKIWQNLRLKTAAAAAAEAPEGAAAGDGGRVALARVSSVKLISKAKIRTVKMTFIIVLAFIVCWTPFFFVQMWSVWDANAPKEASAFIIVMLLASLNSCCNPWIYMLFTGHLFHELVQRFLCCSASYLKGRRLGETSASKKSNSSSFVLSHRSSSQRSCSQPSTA
Kind of experiment: Oxytocin binding in Chinese Hamster Ovary cell membranes expressing human oxytocin receptors. The following applies: 100 nM, CHO cell membranes, [3H]oxytocin, values without parentheses, read-out: OT % inhibition @ 100% nM.
For `Cc1ccccc1-c1ccc(C(=O)N2Cc3ccc(C(=O)N4CCN(C)CC4)n3Cc3ccccc32)cc1C` [Example 50, {10-[(2,2′-Dimethyl[1,1′-biphenyl]-4-yl)carbonyl]-10,11-dihydro-5H-pyrrolo[2,1-c][1,4]benzodiazepin-3-yl}(4-methyl-1-piperazinyl)methanone], the inhibition (as a rule, the change of the read-out against control, counted positive when it falls) at 0.1 µM came out at 95%.
Take `Cc1ccccc1-c1ccc(C(=O)N2Cc3ccc(C(=O)N4CCN(CCCN(C)C)CC4)n3Cc3ccccc32)cc1C` [Example 247, {4-[3-(Dimethylamino)propyl]-1-piperazinyl}{10-[(2,2′-dimethyl[1,1′-biphenyl]-4-yl)carbonyl]-10,11-dihydro-5H-pyrrolo[2,1-c][1,4]benzodiazepin-3-yl}methanone]: the inhibition at 0.1 µM was 97%.
For the compound `COc1cc(-c2ccccc2C)c(Cl)cc1C(=O)N1Cc2ccc(C(=O)NCCCN(C)C)n2Cc2ccccc21` [Example 78, 10-[(6-Chloro-3-methoxy-2′-methyl[1,1′-biphenyl]-4-yl)carbonyl]-N-[3-(dimethylamino)propyl]-10,11-dihydro-5H-pyrrolo[2,1-c][1,4]benzodiazepine-3-carboxamide], the inhibition at 0.1 µM amounted to 62%.
For `COc1cccc(-c2ccc(C(=O)N3Cc4ccc(C(=O)N5CCN(C)CC5)n4Cc4ccccc43)cc2C)c1` [Example 51, {10-[(3′-Methoxy-2-methyl[1,1′-biphenyl]-4-yl)carbonyl]-10,11-dihydro-5H-pyrrolo[2,1-c][1,4]benzodiazepin-3-yl}(4-methyl-1-piperazinyl)methanone] the value was 81%; for `COc1cc(C(=O)N2Cc3ccc(C(=O)N4CCN(C)CC4)n3Cc3ccccc32)ccc1-c1cccc2ccccc12` [Example 55, {10-[3-Methoxy-4-(1-naphthyl)benzoyl]-10,11-dihydro-5H-pyrrolo[2,1-c][1,4]benzodiazepin-3-yl}(4-methyl-1-piperazinyl)methanone], 67%; for `COc1cc(C(=O)N2Cc3cccn3Cc3ccccc32)ccc1-c1ccccc1C(F)(F)F` [Example 19D, (10,11-Dihydro-5H-pyrrolo[2,1-c][1,4]benzodiazepin-10-yl)-(2-methoxy-2′-trifluoromethyl-[1,1′-biphenyl]-4-yl)-methanone], 97%.
In the case of `CN(C)CCCN1CCN(C(=O)c2ccc3n2Cc2ccccc2N(C(=O)c2ccc(-c4cccc5ccccc45)cc2Cl)C3)CC1` [Example 256, {10-[2-Chloro-4-(1-naphthyl)benzoyl]-10,11-dihydro-5H-pyrrolo[2,1-c][1,4]benzodiazepin-3-yl}{4-[3-(dimethylamino)propyl]-1-piperazinyl}methanone] it was 33%; in that of `COc1cccc(-c2cc(OC)c(C(=O)N3Cc4ccc(C(=O)N5CCCN(C)CC5)n4Cc4ccccc43)cc2Cl)c1` [Example 67, {10-[(6-Chloro-3,3′-dimethoxy[1,1′-biphenyl]-4-yl)carbonyl]-10,11-dihydro-5H-pyrrolo[2,1-c][1,4]benzodiazepin-3-yl}(4-methyl-1,4-diazepan-1-yl)methanone], 79%; in that of `COc1cccc(-c2cc(OC)c(C(=O)N3Cc4ccc(C(=O)N5CCN(C)CC5)n4Cc4ccccc43)cc2Cl)c1` [Example 54, {10-[(6-Chloro-3,3′-dimethoxy[1,1′-biphenyl]-4-yl)carbonyl]-10,11-dihydro-5H-pyrrolo[2,1-c][1,4]benzodiazepin-3-yl}(4-methyl-1-piperazinyl)methanone], 78%.
As for `CC(C)N1CCN(C(=O)c2ccc3n2Cc2ccccc2N(C(=O)c2ccc(-c4cccc5ccccc45)cc2Cl)C3)CC1` [Example 243, {10-[2-Chloro-4-(1-naphthyl)benzoyl]-10,11-dihydro-5H-pyrrolo[2,1-c][1,4]benzodiazepin-3-yl}(4-isopropyl-1-piperazinyl)methanone], the inhibition at 0.1 µM is 17%.
As to `COc1cc(C(=O)N2Cc3ccc(C(=O)N4CCCN(C)CC4)n3Cc3ccccc32)ccc1-c1cccc2ccccc12` [Example 68, {10-[3-Methoxy-4-(1-naphthyl)benzoyl]-10,11-dihydro-5H-pyrrolo[2,1-c][1,4]benzodiazepin-3-yl}(4-methyl-1,4-diazepan-1-yl)methanone], the inhibition at 0.1 µM stood at 64%.
With `COc1ccccc1-c1ccc(C(=O)N2Cc3ccc(C(=O)N[C@@H](Cc4c[nH]cn4)C(N)=O)n3Cc3ccccc32)cc1` [Example 285, N-[(1S)-2-Amino-1-(1H-imidazol-4-ylmethyl)-2-oxoethyl]-10-[(2′-methoxy[1,1′-biphenyl]-4-yl)carbonyl]-10,11-dihydro-5H-pyrrolo[2,1-c][1,4]benzodiazepine-3-carboxamide], the inhibition at 0.1 µM worked out at 93%.
In the case of `Cc1ccccc1-c1ccc(C(=O)N2Cc3ccc(C(=O)NCCCN(C)C)n3Cc3ccccc32)cc1` [Example 76, N-[3-(Dimethylamino)propyl]-10-[(2′-methyl[1,1′-biphenyl]-4-yl)carbonyl]-10,11-dihydro-5H-pyrrolo[2,1-c][1,4]benzodiazepine-3-carboxamide] it was 65%; in that of `Cc1cc(C(=O)N2Cc3ccc(C(=O)N[C@@H](Cc4c[nH]cn4)C(N)=O)n3Cc3ccccc32)ccc1-c1ccccc1C(F)(F)F` [Example 284, N-[(1S)-2-Amino-1-(1H-imidazol-4-ylmethyl)-2-oxoethyl]-10-{[2-methyl-2′-(trifluoromethyl)[1,1′-biphenyl]-4-yl]carbonyl}-10,11-dihydro-5H-pyrrolo[2,1-c][1,4]benzodiazepine-3-carboxamide], 87%.
For `COc1cc(C(=O)N2Cc3ccc(C(=O)NCCCN(C)C)n3Cc3ccccc32)ccc1-c1ccccc1C` [Example 77, N-[3-(Dimethylamino)propyl]-10-[(2-methoxy-2′-methyl[1,1′-biphenyl]-4-yl)carbonyl]-10,11-dihydro-5H-pyrrolo[2,1-c][1,4]benzodiazepine-3-carboxamide] the value was 65%.
For `Cc1ccccc1-c1ccc(C(=O)N2Cc3ccc(C(=O)NCCCN(C)C)n3Cc3ccccc32)cc1C` [Example 73, N-[3-(Dimethylamino)propyl]-10-[(2,2′-dimethyl[1,1′-biphenyl]-4-yl)carbonyl]-10,11-dihydro-5H-pyrrolo[2,1-c][1,4]benzodiazepine-3-carboxamide] the value was 85%; for `COc1ccccc1-c1ccc(C(=O)N2Cc3ccc(C(=O)n4ccnc4)n3Cc3ccccc32)cc1C` [Example 292, 1H-Imidazol-1-yl-{10-[(2′-methoxy-2-methyl[1,1′-biphenyl]-4-yl)carbonyl]-10,11-dihydro-5H-pyrrolo[2,1-c][1,4]benzodiazepin-3-yl}methanone], 69%; for `COc1ccccc1-c1ccc(C(=O)N2Cc3ccc(C(=O)N[C@@H](Cc4c[nH]cn4)C(N)=O)n3Cc3ccccc32)cc1C` [Example 288, N-[(1S)-2-Amino-1-(1H-imidazol-4-ylmethyl)-2-oxoethyl]-10-[(2′-methoxy-2-methyl[1,1′-biphenyl]4-yl)carbonyl]-10,11-dihydro-5H-pyrrolo[2,1-c][1,4]benzodiazepine-3-carboxamide], 95%.
Consider `COc1cc(-c2ccccc2C)c(Cl)cc1C(=O)N1Cc2ccc(C(=O)N[C@@H]3CN4CCC3CC4)n2Cc2ccccc21` [Example 297, N-[(3S)-1-Azabicyclo[2.2.2]oct-3-yl]-10-[(6-chloro-3-methoxy-2′-methyl-[1,1′-biphenyl]-4-yl)carbonyl]-10,11-dihydro-5H-pyrrolo[2,1-c][1,4]benzodiazepine-3-carboxamide], for which the inhibition at 0.1 µM is 73%.
As for `COc1ccccc1-c1ccc(C(=O)N2Cc3ccc(C(=O)N4CCN(CCCN(C)C)CC4)n3Cc3ccccc32)cc1OC` [Example 254, {10-[(2,2′-Dimethoxy[1,1′-biphenyl]-4-yl)carbonyl]-10,11-dihydro-5H-pyrrolo[2,1-c][1,4]benzodiazepin-3-yl}{4-[3-(dimethylamino)propyl]-1-piperazinyl}methanone], the inhibition at 0.1 µM is 66%.
For `COc1cc(C(=O)N2Cc3ccc(C(=O)N4CCCN(C)CC4)n3Cc3ccccc32)ccc1-n1c(C)ccc1C` [Example 307, {10-[4-(2,5-Dimethyl-1H-pyrrol-1-yl)-3-methoxybenzoyl]-10,11-dihydro-5H-pyrrolo[2,1-c][1,4]benzodiazepin-3-yl}(4-methyl-1,4-diazepan-1-yl)methanone] the value was 30%.
`COc1cc(C(=O)N2Cc3ccc(C(=O)N(C)CCN(C)C)n3Cc3ccccc32)ccc1-n1c(C)ccc1C` [Example 309, N-[2-(Dimethylamino)ethyl]-10-[4-(2,5-dimethyl-1H-pyrrol-1-yl)-3-methoxybenzoyl]-N-methyl-10,11-dihydro-5H-pyrrolo[2,1-c][1,4]benzodiazepine-3-carboxamide]: the inhibition at 0.1 µM is 72%.
As for `Cc1cc(C(=O)N2Cc3cccn3Cc3ncccc32)ccc1-c1ccccc1C(F)(F)F` [Example 323F, (2-Methyl-2′-trifluoromethyl-[1,1′-biphenyl]-4-yl)-(4H,10H-3a,5,9-triaza-benzo[f]azulen-9-yl)-methanone], the inhibition at 0.1 µM is 33%.
As to `Cc1cc(C(=O)N2Cc3ccc(C(=O)N[C@H]4CN5CCC4CC5)n3Cc3ccccc32)ccc1-c1ccccc1C(F)(F)F` [Example 301, N-[(3R)-1-Azabicyclo[2.2.2]oct-3-yl]-10-{[2-methyl-2′-(trifluoromethyl)[1,1′-biphenyl]-4-yl]carbonyl}-10,11-dihydro-5H-pyrrolo[2,1-c][1,4]benzodiazepine-3-carboxamide], the inhibition at 0.1 µM came to 82%.
